Experimental data published in patent US6057311A, “Benzodiazonine derivatives binding to cholecystokinin or gastrin receptors” (James Black Foundation Limited, priority 1996, dated 2000).

How the values were obtained:
[1] = target: T1, CCKA (Cavia porcellus, UniProt Q63931); assay: CCKA binding assay, guinea pig pancreas membranes ([125I]-CCK8(S)); conditions: [125I]-CCK8(S) 200 pM, 0.375 μM PD134,308, 150 min at 21±3° C.; for Ki: pH 7.2, read-out: pKi (Guinea pig pancreas) (converted); for pKi (Guinea pig pancreas): pH 7.2
T1 construct: The pancreatata were removed from male guinea-pigs; from tissue; host or cells: pancreas of male Dunkin Hartley guinea pigs, membranes
T1 sequence (Q63931 1-430): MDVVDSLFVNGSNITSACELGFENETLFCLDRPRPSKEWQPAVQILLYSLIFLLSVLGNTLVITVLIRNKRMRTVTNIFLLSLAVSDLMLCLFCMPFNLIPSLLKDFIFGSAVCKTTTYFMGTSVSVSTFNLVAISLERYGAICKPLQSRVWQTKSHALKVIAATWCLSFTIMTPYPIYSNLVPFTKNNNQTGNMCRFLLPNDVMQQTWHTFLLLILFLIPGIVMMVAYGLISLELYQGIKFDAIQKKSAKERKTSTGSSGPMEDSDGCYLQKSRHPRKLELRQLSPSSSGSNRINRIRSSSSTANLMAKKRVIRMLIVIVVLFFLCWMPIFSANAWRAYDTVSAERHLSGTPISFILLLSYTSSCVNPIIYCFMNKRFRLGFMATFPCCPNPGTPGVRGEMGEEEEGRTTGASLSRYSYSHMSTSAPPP
Experimental: The compounds of the examples were also tested in a CCKA binding assay as follows:
The pancreatata were removed from male guinea-pigs (200-300 g; Dunkin Hartley) and placed in ice-cold HEPES buffer (pH 7.2@21±3° C.). The pancreatata were homogenised in 40 ml ice-cold HEPES buffer using a polytron (Brinkmann, PT10, setting 10) 4×1 second. The homogenate was centrifuged at 39,800 g for 15 min at 4° C. The supernatant was discarded and the pellet re-suspended using a Teflon-in-glass homogeniser in 20 volumes of fresh buffer and re-centrifuged as above. The final pellet was re-suspended using a Teflon-in-glass homogeniser to a tissue concentration of 1 mg.ml^-1 (original wet weight), and filtered through 500 μm pore-size Nytex mesh.
The membranes (400 μl; containing 0.375 μM PD134,308) were incubated for 150 minutes at 21±3° C. in a final volume of 0.5 ml with HEPES buffer containing [^125 I]-CCK8 (S) (50 μl; 200 pM) and competing compound. Total and non-specific binding of [^125 I]-CCK8 (S) were defined using 50 μl of buffer and 50 μl of 100 nM L-364,718 respectively. The assay was terminated by rapid filtration through pre-soaked Whatman GF/B filters using a Brandell Cell Harvester. The filters were washed (3×3 ml) with ice-cold 50 mM Tris HCl (pH 7.4 at 4° C.) and bound radioactivity was determined by counting (1 min) in a gamma counter.

[2] = target: T2, CCKB receptor (Mus musculus, UniProt P56481); assay: radioligand binding assay at the CCKB receptor in mouse cortical membranes ([125I]-CCK8S); conditions: [125I]-CCK8S 200 pM, 150 min at 21±3° C.; for Ki: pH 7.2, read-out: pKi (Mouse cortex) (converted); for pKi (Mouse cortex): pH 7.2
T2 construct: The cortex was dissected, weighed and homogenised in 40 ml ice-cold buffer; tissue Charles River (animals); host or cells: cerebral cortex of male CD1 mice, membranes
T2 sequence (P56481 1-453): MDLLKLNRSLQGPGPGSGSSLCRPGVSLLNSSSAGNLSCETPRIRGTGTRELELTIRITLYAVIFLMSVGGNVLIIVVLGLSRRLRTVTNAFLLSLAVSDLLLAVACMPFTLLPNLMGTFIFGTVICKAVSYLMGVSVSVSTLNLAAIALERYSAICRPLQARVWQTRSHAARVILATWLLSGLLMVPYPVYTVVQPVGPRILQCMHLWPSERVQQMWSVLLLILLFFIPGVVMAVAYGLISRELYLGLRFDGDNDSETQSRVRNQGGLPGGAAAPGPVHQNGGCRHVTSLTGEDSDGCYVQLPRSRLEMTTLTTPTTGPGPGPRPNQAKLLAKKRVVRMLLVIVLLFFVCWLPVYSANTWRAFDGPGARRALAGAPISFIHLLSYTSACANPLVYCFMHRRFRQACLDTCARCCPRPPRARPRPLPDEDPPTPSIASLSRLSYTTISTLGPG
Experimental: The compounds of the examples were tested for binding at the CCKB receptor in mouse cortical membranes by means of a radioligand binding assay. The procedure was as follows:
The whole brains from male mice (CD1 22-25 g; Charles River) were removed and placed in ice-cold buffer (pH7.2@21±3° C.) of the following composition (mM); 10 HEPES, 130 NaCl, 4.7 KCl, 5 MgCl2, 1 EDTA and containing 0.25 g.1^-1 bacitracin. The cortex was dissected, weighed and homogenised in 40 ml ice-cold buffer using a Teflon-in-glass homogeniser. The homogenate was centrifuged at 39,800 g for 20 min at 4° C., the supernatant discarded and the pellet resuspended by homogenisation in fresh buffer. The homogenate was recentrifuged (39,800 g; 20 min @4° C.) and the final pellet was resuspended in HEPES buffer to give a tissue concentration of 2 mg.ml^-1 (original wet weight).
The membranes (400 μl) were incubated for 150 min at 21±3° C. in a final volume of 0.5 ml with HEPES buffer containing [^125 I]-CCK8S (0.05 ml; 200 pM NEN 2200 Ci.mmol^-1) and competing compound. Total and non-specific binding of [^125 I]-CCK8S were defined using 0.05 ml of buffer and 0.05 ml of […] L-365,260, respectively. The assay was terminated by rapid filtration through pre-soaked Whatman GF/B filters using a Brandell Cell harvester. The filters were washed (3×3 ml) with ice-cold 50 mM Tris-HCl (pH7.4@4° C.) and bound radioactivity determined by counting (1 min.) in a gamma-counter.

SMILES | Ki [1] [µM] | Ki [2] [µM] | pKi (Guinea pig pancreas) [1] | pKi (Mouse cortex) [2]
CC(=O)N1[C@H](CC23CC4CC(CC(C4)C2)C3)C(=O)N(Cc2ccccc2Cl)c2ccccc2C(=O)C[C@H]1C(=O)NCC(=O)O [Example 63, (3R,5S)-4-acetyl-3-(1-adamantyl)methyl-1-(2-chlorobenzyl)-5-carboxymethylaminocarbonyl-2,7-dioxo-2,3,4,5,6,7-hexahydro-1H-1,4-benzodiazonine] | 10 | 0.1 | – | –
CC(=O)N1[C@H](CC23CC4CC(CC(C4)C2)C3)C(=O)N(C)c2ccccc2C(=O)C[C@H]1C(=O)NCC(=O)O [Example 32, (3R,5S)-4-acetyl-3-(1-adamantyl)methyl-5-carboxymethylaminocarbonyl-1-methyl-2,7-dioxo-2,3,4,5,6,7-hexahydro-1H-1,4-benzodiazonine] | 10 | 5.01 | – | –
CC(=O)N1[C@H](C(=O)O)CC(=O)c2ccccc2N(Cc2ccccc2)C(=O)[C@@H]1CC12CC3CC(CC(C3)C1)C2 [Example 12, (3S,5S)-4-acetyl-3-(1-adamantyl)methyl-1-benzyl-2,7-dioxo-2,3,4,5,6,7-hexahydro-1H-1,4-benzodiazonine-5-carboxylate] | 10 | 10 | – | –
Cc1cccc(NC(=O)N2CCC(=O)c3ccccc3N(Cc3ccccc3)C(=O)C2)c1 [Example 3, 1-benzyl-4-(3-methylphenyl)carbamyl-2,7-dioxo-2,3,4,5,6,7-hexahydro-1H-1,4-benzodiazonine] | 0.316 | 7.94 | – | –
CC(=O)N1[C@H](CC23CC4CC(CC(C4)C2)C3)C(=O)N(Cc2ccccc2F)c2ccccc2C(=O)C[C@H]1C(=O)N[C@@H](C)C(=O)O [Example 64, (3R,5S)-4-acetyl-3-(1-adamantyl)methyl-1-(2-fluorobenzyl)-5-[(1S)-carboxy]ethylaminocarbonyl-2,7-dioxo-2,3,4,5,6,7-hexahydro-1H-1,4-benzodiazonine] | 25.1 | 0.158 | – | –
CC(=O)N1[C@H](CC23CC4CC(CC(C4)C2)C3)C(=O)N(Cc2ccccc2)c2ccccc2C(=O)C[C@H]1C(=O)N(C)CC(=O)O (single isomer, unassigned; isomer 1) [Example 29] | – | – | 5.2 | 5.5
O=C(OCc1ccccc1)c1cccc(NC(=O)N2CCC(=O)c3ccccc3N(Cc3ccccc3)C(=O)C2)c1 [Example 46] | 3.98 | 10 | – | –
O=C1C[C@@H](C(=O)O)N(C(=O)OCc2ccccc2)[C@H](CC23CC4CC(CC(C4)C2)C3)C(=O)N(Cc2ccccc2)c2ccccc21 [Example 20, (3R,5S)-3-(1-adamantyl)methyl-1-benzyl-4-benzyloxycarbonyl-2,7dioxo-2,3,4,5,6,7-hexahydro-1H-1,4-benzodiazonine-5-carboxylate] | 3.98 | 3.16 | – | –
CC(=O)N1[C@H](CC23CC4CC(CC(C4)C2)C3)C(=O)N(Cc2ccccc2)c2ccc(F)cc2C(=O)C[C@H]1C(=O)NCC(=O)O (relative stereo) [Example 61, (+/-)-trans-4-acetyl-3-(1-adamantyl)methyl-1-benzyl-5-carboxymethylaminocarbonyl-2,7-dioxo-9-fluoro-2,3,4,5,6,7-hexahydro-1H-1,4-benzodiazonine] | 12.6 | 0.398 | – | –
CC(=O)N1[C@H](CC23CC4CC(CC(C4)C2)C3)C(=O)N(Cc2ccc(F)cc2)c2ccccc2C(=O)C[C@H]1C(=O)NCC(=O)O [Example 58, (3R,5S)-4-acetyl-3-(1-adamantyl)methyl-1-(4-fluorobenzyl)-5-carboxymethylaminocarbonyl-2,7-dioxo-2,3,4,5,6,7-hexahydro-1H-1,4-benzodiazonine] | 7.94 | 2 | – | –
CCC1CCN(C(=O)Nc2cccc(C)c2)CC(=O)N(Cc2ccccc2)c2ccccc21 (stereo not shown) [Example 51, 1-benzyl-7-ethyl-4-(3-methylphenyl)carbamyl-2-oxo-5,2,3,4,5,6,7-hexahydro-1H-1,4-benzodiazonine] | 0.794 | 3.16 | – | –
CC(=O)N1[C@H](CC(C)(C)C)C(=O)N(Cc2ccccc2)c2ccccc2C(=O)C[C@H]1C(=O)O [Example 19, (3R,5S)-4-acetyl-1-benzyl-3-(2,2-dimethylpropyl)-2,7-dioxo-2,3,4,5,6,7-hexahydro-1H-1,4-benzodiazonine-5-carboxylate] | 15.8 | 7.94 | – | –
CC(=O)N1[C@H](CC23CC4CC(CC(C4)C2)C3)C(=O)N(Cc2ccccc2)c2ccccc2C(=O)C[C@H]1C(=O)N[C@@H](C)C(=O)O [Example 24, (3R,5S)-4-acetyl-3-(1-adamantyl)methyl-1-benzyl-5-[(1S)-carboxy]ethylaminocarbonyl-2,7-dioxo-2,3,4,5,6,7-hexahydro-1H-1,4-benzodiazonine] | – | – | 5.0 | 6.9
O=C(O)CCC(=O)N1CCC(=O)c2ccccc2N(Cc2ccccc2)C(=O)C1CC12CC3CC(CC(C3)C1)C2 (racemic) [Example 33, (R/S)-3-(1-adamantyl)methyl-1-benzyl-4-(2-carboxy)ethylcarbonyl-2,7-dioxo-2,3,4,5,6,7-hexahydro-1H-1,4-benzodiazonine] | 6.31 | 10 | – | –
Cc1cccc(NC(=O)N2CCC(=O)c3ccccc3N(CC(=O)OC(C)(C)C)C(=O)C2)c1 [Example 1, 1-tert-butyloxycarbonylmethyl-4-(3-methylphenyl)carbamyl-2,7-dioxo-2,3,4,5,6,7-hexahydro-1H-1,4-benzodiazonine] | 0.2 | 10 | – | –
COC(=O)[C@@H]1CC(=O)c2ccccc2N(Cc2ccccc2)C(=O)[C@@H](CC23CC4CC(CC(C4)C2)C3)N1C(C)=O [Example 18, (3R,5S)-methyl 4-acetyl-3-[(1-adamantyl)methyl]-1-benzyl-2,7-dioxo-2,3,4,5,6,7-hexahydro-1H-1,4-benzodiazonine-5-carboxylate] | – | – | 5.4 | 5.5
CC(=O)N1[C@H](CC23CC4CC(CC(C4)C2)C3)C(=O)N(Cc2ccccc2)c2ccccc2C(=O)C[C@H]1C(=O)N[C@H](C)C(=O)O [Example 25, (3R,5S)-4-acetyl-3-(1-adamantyl)methyl-1-benzyl-5-[(1R)-carboxy]ethylaminocarbonyl-2,7-dioxo-2,3,4,5,6,7-hexahydro-1H-1,4-benzodiazonine] | 6.31 | 0.398 | – | –
